Measured values: ChEMBL document CHEMBL4392850, “Cu-mediated synthesis of differentially substituted diazepines as AChE inhibitors; validation through molecular docking and Lipinski's filter to develop novel anti-neurodegenerative drugs” (Bioorg Med Chem Lett, 2019)

Assays:
Acetylcholinesterase [1] = molecular target: T1, Acetylcholinesterase (Homo sapiens, UniProt P22303); test: Inhibition of AChE in erythrocytes (unknown origin) pre-incubated for 20 mins before acetylthiocholine substrate addition and measured over 30 mins by DTNB dye based spectrophotometry; format: cell-based
[2] = Antioxidant activity assessed as DPPH radical scavenging activity incubated for 15 to 20 mins by UV-visible spectrometry relative to untreated control; format: functional
[3] = Antioxidant activity assessed as DPPH radical scavenging activity incubated for 15 to 20 mins by UV-visible spectrometry; format: functional
Acetylcholinesterase [4] = molecular target: T1, Acetylcholinesterase; test: Inhibition of AChE in erythrocytes (unknown origin) pre-incubated for 20 mins before acetylthiocholine substrate addition and measured over 30 mins by DTNB dye based spectrophotometry relative to untreated control; format: cell-based

T1 sequence (P22303 whole entry): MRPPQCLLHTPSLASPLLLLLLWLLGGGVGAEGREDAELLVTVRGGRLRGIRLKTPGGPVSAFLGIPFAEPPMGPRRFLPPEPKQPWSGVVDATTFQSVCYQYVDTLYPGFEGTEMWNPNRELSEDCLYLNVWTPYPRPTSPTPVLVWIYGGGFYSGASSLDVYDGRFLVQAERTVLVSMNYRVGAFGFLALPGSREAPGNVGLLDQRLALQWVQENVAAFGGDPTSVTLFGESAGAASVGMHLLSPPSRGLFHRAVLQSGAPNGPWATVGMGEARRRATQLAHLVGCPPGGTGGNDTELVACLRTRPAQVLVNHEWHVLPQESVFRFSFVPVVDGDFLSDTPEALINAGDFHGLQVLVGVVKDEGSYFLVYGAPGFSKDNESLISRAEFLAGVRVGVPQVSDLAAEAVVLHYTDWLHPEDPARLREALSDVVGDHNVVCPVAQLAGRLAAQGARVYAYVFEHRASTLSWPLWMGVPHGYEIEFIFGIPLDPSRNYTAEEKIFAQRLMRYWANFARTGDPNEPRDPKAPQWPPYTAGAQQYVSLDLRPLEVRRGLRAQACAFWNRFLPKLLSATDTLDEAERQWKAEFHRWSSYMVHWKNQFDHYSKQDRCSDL

| Structure (SMILES) | inhibition (Acetylcholinesterase [1]) | inhibition [2] [%] | IC50 [3] [nM] | IC50 (Acetylcholinesterase [1]) [nM] | inhibition (Acetylcholinesterase [4]) [%] |
| --- | --- | --- | --- | --- | --- |
| Cn1c(=O)c2c(ncn2C)n(C)c1=O | Dose-dependent effect |  |  |  |  |
| Cc1ccc(-c2nnn3c2C2c4ccccc4CCN2Cc2ccccc2-3)cc1 (stereo unspecified) | Dose-dependent effect |  |  |  |  |
| O=C1O[C@H]([C@@H](O)CO)C(O)=C1O [ASCORBIC ACID] |  | 80.2 | 1250 |  |  |
| c1ccc(-c2nnn3c2C2c4ccccc4CCN2Cc2ccccc2-3)cc1 (stereo unspecified) | Dose-dependent effect |  |  |  |  |
| c1ccc(-c2nnn3c2C2CCCN2Cc2cc4c(cc2-3)OCO4)cc1 (stereo unspecified) | Dose-dependent effect |  |  |  |  |
| Fc1ccc(-c2nnn3c2C2c4ccccc4CCN2Cc2ccccc2-3)cc1 (stereo unspecified) | Dose-dependent effect |  |  |  |  |
| c1ccc(-c2nnn3c2C2c4ccccc4CCN2Cc2cc4c(cc2-3)OCO4)cc1 (stereo unspecified) | Dose-dependent effect |  |  |  |  |
| Brc1ccc(-c2nnn3c2C2c4ccccc4CCN2Cc2ccccc2-3)cc1 (stereo unspecified) | Dose-dependent effect | 96.1 | 86.2 | 250 | < 95 |
| c1ccc(-c2nnn3c2C2CCCCN2Cc2cc4c(cc2-3)OCO4)cc1 (stereo unspecified) | Dose-dependent effect | 92.3 | 94.8 |  |  |
